The nature of data set [1]: MTT cytotoxicity assay, WI-38 normal cells. It counts as cell-based. The note with it: human, WI-38 lung fibroblasts (normal cells), WI-38, 72 h incubation, MTT, n = 3 (Table 3). The text has this:
(§1) The cytotoxicity of the test compounds was studied using the MTT assay against a number of cell lines: CT-26 murine colon carcinoma, 4T1 murine mammary carcinoma, MDA-MB-231 human breast adenocarcinoma, COLO201 human colorectal adenocarcinoma, HepG2 human hepatocellular carcinoma, A549 human non-small-cell lung carcinoma, SK-BR-3 human breast adenocarcinoma, SNU-1 human gastric carcinoma, Jurkat human acute T-lymphoblastic leukemia, and WI-38 human lung fibroblasts (normal cells). Doxorubicin (Dox) was used as a reference drug. Cells were incubated with test compounds for 72 h.
(§2) Cells were seeded in flat-bottomed 96-well plates at 10,000 cells per well (for A549, SNU-1, WI-38, CT-26, MDA-MB-231, 4T1, and HepG2 cells) or 20,000 cells per well (for SK-BR-3, Jurkat, and COLO201 cells) and cultivated in complete culture mediums (for composition of each medium, see the Supplementary Materials, Table S1) in a CO2 incubator at 37 °C. At the first stage of this study, the test compounds dissolved in DMSO were added to the wells with cells at final concentrations from 1 × 10^–4 to 1 × 10^–10 mol/L (A549, SK-BR-3, SNU-1, Jurkat, and WI-38) or 1 × 10^–3 to 1 × 10^–8 mol/L (CT-26, MDA-MB-231, 4T1, COLO201, and HepG2); DMSO concentration in the wells was finally 1%. A complete cultural medium and DMSO were added to the control wells at the same concentration as in the experimental wells; 0.1% Triton X-100 solution (10 µL) was added to the corresponding wells as a non-specific positive control. After adding the test compounds, the cells were incubated for 72 h in an atmosphere containing 5% CO2. After that, the nutrient medium was removed from each well (in the case of SK-BR-3, Jurkat, and COLO201, plates were pre-centrifuged at 1500 rpm for 6 min). A solution of the commercial anticancer agent Doxorubicin (Dox, Sigma-Aldrich, St. Louis, MO, USA) in DMSO was used as a reference drug. Then, 150 µL of a complete medium with the MTT reagent (PanEco, Moscow, Russia) at a concentration of 0.5 mg/mL was added and incubated for 2 h. Formazan crystals were dissolved in DMSO (200 µL) and the absorbance in the wells was measured at 540 nm and a reference wavelength of 650 nm (Sunrise, Tecan, Groding, Austria). Experiments were performed in three parallel runs. Cell viability after incubation in the presence of test compounds was calculated in relation to cell viability in the control wells according to the Formula (1):Cell viability (%) = (Aexp/Ac) × 100,(1) where Aexp is the optical density of solutions in the wells containing test compounds; Ac is the optical density of solutions in control wells without test compounds. For detailed information on cell viability of various cell lines, see the Supplementary Materials, Figures S21–S26.
(§3) At the second stage of this study, in order to more accurately calculate the CC50 (the half maximal inhibitory concentration), the cytotoxic effect of test compounds was evaluated at concentrations close to CC50 found at the first stage. The study of the cytotoxic activity of each substance towards the cells of each line was carried out in triplicate; the mean value was used to calculate CC50. The CC50 values were determined by non-linear regression analysis using Graph-Pad Prism7.
In general terms: Tetrazolium assays rely on reduction of a dye to a coloured formazan, in cell work by metabolically active cells.

The test system of data set [2] is A549, SK-BR-3, SNU-1, Jurkat, WI-38 cell lines. Put plainly: MTT cytotoxicity assay, cell line panel (result in words). The format is cell-based, human. The note with it: 72 h.
Excerpt: as §1
The cytotoxicity of compounds 2a–c, 6, 7, and 9 was also studied using the MTT assay against a number of tumor cell lines: A549, SK-BR-3, SNU-1, Jurkat, as well as normal fibroblasts WI-38 (Table 3).
as §2, §3

In data set [3] the test system is Jurkat human acute T-lymphoblastic leukemia. Put plainly: MTT cytotoxicity assay, Jurkat. The format is cell-based. The note with it: Homo sapiens, Jurkat, 72 h, 72 h incubation, MTT, n = 3 (Table 3).
Excerpt: as §1, §2, §3

Data set [4] has as its system SNU-1 human gastric carcinoma. Put plainly: MTT cytotoxicity assay, SNU-1. It counts as cell-based. The note with it: Homo sapiens, SNU1, 72 h, SNU-1, 72 h incubation, MTT, n = 3 (Table 3).
Excerpt: as §1, §2, §3

In data set [5] the test system is A549 human non-small-cell lung carcinoma. Put plainly: MTT cytotoxicity assay, A549. The format is cell-based. The note with it: Homo sapiens, A549, 72 h, A549, 72 h incubation, MTT, n = 3 (Table 3).
Excerpt: as §1, §2, §3

The subject of data set [6] is SK-BR-3 human breast adenocarcinoma. Put plainly: MTT cytotoxicity assay, SK-BR-3. The note with it: Homo sapiens, SK-BR-3, 72 h, SK-BR-3, 72 h incubation, MTT, n = 3 (Table 3). It counts as cell-based.
Excerpt: as §1, §2, §3

Data set [7] in a line: MTT cytotoxicity assay, Jurkat. It counts as cell-based, human. The note with it: human, CC50 of WI-38 divided by CC50 of Jurkat (Table 3); read-out: SCI (selective cytotoxicity index).
Excerpt: as §1, §2, §3

The nature of data set [8]: MTT cytotoxicity assay, SNU-1. The format is cell-based, human. The note with it: human, CC50 of WI-38 divided by CC50 of SNU-1 (Table 3); read-out: SCI (selective cytotoxicity index).
Excerpt: as §1, §2, §3

Data set [9] in a line: MTT cytotoxicity assay, A549. The format is cell-based, human. The note with it: human, CC50 of WI-38 divided by CC50 of A549 (Table 3); read-out: SCI (selective cytotoxicity index).
Excerpt: as §1, §2, §3

Data set [10] in a line: MTT cytotoxicity assay, SK-BR-3. The format is cell-based, human. The note with it: human, CC50 of WI-38 divided by CC50 of SK-BR-3 (Table 3); read-out: SCI (selective cytotoxicity index).
Excerpt: as §1, §2, §3

For `C[C@H]1COc2c(ccc(F)c2F)N1C(=O)CCCCCCCCC(=O)N1c2ccc(F)c(F)c2OC[C@@H]1C` (hydrate or solvate) [(S)-9, 1,10-bis((S)-7,8-Difluoro-3-methyl-2H-benzo[b][1,4]oxazin-4(3H)-yl)decan-1,10-dione], the melting point (as a rule, the temperature of the solid-liquid transition) is 41 to 42 °C.

Turning to `CC1COc2c(ccc(F)c2F)N1C(=O)CCCCCCCCC(=O)N1c2ccc(F)c(F)c2OCC1C` (stereo not drawn) (hydrate or solvate) [Compound 9, 1,10-bis(-7,8-Difluoro-3-methyl-2H-benzo[b][1,4]oxazin-4(3H)-yl)decan-1,10-dione], the melting point is 103 to 104 °C.

For `O=C(O)CCCCCCCCCCCNc1ncnc2nc[nH]c12` [Compound 2b, N-(Purin-6-yl)-12-aminododecanoic Acid], the CC50 (as a rule, the concentration giving 50% cytotoxicity) at 72 h in data set [1] was greater than 100 µM. In data set [2], the “cytotoxic activity (in words)” value is recorded as “cytotoxic only against the Jurkat cell line”. The CC50 in data set [3] was 49 µM; in [4] it was greater than 100 µM; in data set [5], greater than 100 µM; in [6] it was greater than 100 µM.

As to `COc1cccc2c1C(=O)c1c(O)c3c(c(O)c1C2=O)C[C@@](O)(C(=O)CO)C[C@@H]3O[C@H]1C[C@H](N)[C@H](O)[C@H](C)O1` [Dox, Doxorubicin, reference compound], the CC50 at 72 h in [1] is 0.23 µM. In addition, the selectivity ratio at 72 h in data set [7] amounted to 1.9; in data set [8], 1.6; in [9], 1; in data set [10], 0.15. The CC50 turned out to be 0.12 µM in data set [3], 0.14 µM in data set [4], 0.22 µM in data set [5] and 1.5 µM in [6].

The compound `CC(=O)OCCOCn1cnc2c(NCCCCCCCCCCC(=O)N3c4ccc(F)c(F)c4OCC3C)ncnc21` (stereo not drawn) [Compound 6, {11-[9-(2-Acetoxyethoxy)methylpurin-6-yl]aminoundecanoyl]-7,8-difluoro-3,4-dihydro-3-methyl-2H-[1,4]benzoxazine] returned a CC50 at 72 h in data set [1] of 30 µM. Besides, the “cytotoxic activity (in words)” value in [2] is listed as “approximately the same cytotoxicity as the most active compound 1d”. The selectivity ratio at 72 h in data set [7] is 3; in [8], 5.4; in data set [9] it was 2; in data set [10], 0.08. In addition, the 50% cytotoxic concentration (CC50) in data set [3] was 10 µM; in data set [4] it was 5.6 µM; in data set [5] it was 15 µM; in data set [6], 370 µM.

`CC1COc2c(ccc(F)c2F)N1C(=O)CCCCCCCCC(=O)N1c2ccc(F)c(F)c2OCC1C` (stereo not drawn) [Compound 9, 1,10-bis(-7,8-Difluoro-3-methyl-2H-benzo[b][1,4]oxazin-4(3H)-yl)decan-1,10-dione] displayed a half-maximal cytotoxic concentration (CC50) at 72 h in data set [1] greater than 100 µM. For the same compound, the “cytotoxic activity (in words)” value in [2] was “did not exhibit cytotoxic activity”. For the same compound, the 50% cytotoxic concentration (CC50) in data set [3], in data set [4], in data set [5] and in data set [6] was greater than 100 µM each time.

`O=C(O)CCCCCCCCCCNc1ncnc2nc[nH]c12` [Compound 2a, N-(Purin-6-yl)-11-aminoundecanoic Acid]: the melting point is 172 to 174 °C. The CC50 at 72 h in data set [1] was greater than 100 µM. Besides, in [2], the “cytotoxic activity (in words)” value is “cytotoxic only against the Jurkat cell line”. The selectivity ratio at 72 h in data set [7] is no less than 1.7. This compound also returned a CC50 in [3] of 59 µM. Also, in data set [4], the 50% cytotoxic concentration (CC50) is greater than 100 µM. Besides, the CC50 in [5] was greater than 100 µM. The CC50 in data set [6] is greater than 100 µM.

The compound `C[C@H]1COc2c(ccc(F)c2F)N1C(=O)CCCCCCCCC(=O)N1c2ccc(F)c(F)c2OC[C@@H]1C` [(S)-9, 1,10-bis((S)-7,8-Difluoro-3-methyl-2H-benzo[b][1,4]oxazin-4(3H)-yl)decan-1,10-dione] registered a CC50 at 72 h in data set [1] greater than 100 µM. Also, the “cytotoxic activity (in words)” value in data set [2] is “did not exhibit cytotoxic activity”. Also, the cytotoxic concentration (CC50) in data set [3], in [4], in data set [5] and in [6] was greater than 100 µM each time.

With `CC1COc2c(ccc(F)c2F)N1C(=O)CNc1ncnc2[nH]cnc12` (stereo not drawn) [Compound 1a], the cytotoxic concentration (CC50) at 72 h in [1] is greater than 100 µM. For the same compound, the “cytotoxic activity (in words)” value in data set [2] is “non-cytotoxic”. For the same compound, the half-maximal cytotoxic concentration (CC50) in data set [3], in [4], in data set [5] and in data set [6] was greater than 100 µM each time.

As to `O=C(O)CCCCCCCCCCCCCCNc1ncnc2nc[nH]c12` [Compound 2c, N-(Purin-6-yl)-15-aminopentadecanoic Acid], the melting point lay in the range of 198 to 199 °C. Besides, in [1], the CC50 at 72 h is greater than 100 µM. Further, the “cytotoxic activity (in words)” value in [2] is given as “no cytotoxic activity”. In addition, the 50% cytotoxic concentration (CC50) in [3] is greater than 100 µM. The CC50 in data set [4] is greater than 100 µM. The CC50 in data set [5] was greater than 100 µM. For the same compound, the CC50 in [6] is greater than 100 µM.
